The text below walks through data of US20230014907A1, “INHIBITORS OF APOL1 AND METHODS OF USING SAME” (Vertex Pharmaceuticals Incorporated, priority 2020, published 2023).

One experiment deals with T1, APOL1 G1 Protein (Homo sapiens, UniProt O14791, I384M/S342G).
T1 sequence (O14791 28-398 S342G/I384M): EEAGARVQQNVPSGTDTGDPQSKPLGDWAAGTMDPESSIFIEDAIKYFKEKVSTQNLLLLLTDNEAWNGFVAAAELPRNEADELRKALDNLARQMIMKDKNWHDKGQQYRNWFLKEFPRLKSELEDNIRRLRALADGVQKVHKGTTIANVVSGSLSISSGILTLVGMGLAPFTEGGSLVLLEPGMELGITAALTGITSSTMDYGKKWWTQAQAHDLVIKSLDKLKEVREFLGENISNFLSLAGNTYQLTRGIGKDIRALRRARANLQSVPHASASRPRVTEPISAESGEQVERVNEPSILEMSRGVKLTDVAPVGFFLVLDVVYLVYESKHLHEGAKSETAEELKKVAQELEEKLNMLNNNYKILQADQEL
In words: Trypanosoma brucei brucei Lysis Assay Using APOL1 Recombinant Protein (AlamarBlue viability). It is filed as cell-based. The settings on record: read-out: Trypanosomal Assay (IC50). The method in brief: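 Lister 427 bloodstream-form trypanosomes seeded at 120,000 per well in phenol-red-free, serum-free medium and lysed with recombinant APOL1 variant protein. Viability read by AlamarBlue (resazurin) fluorescence. Percent viability relative to untreated wells, interpolated from a standard curve of seeded parasites.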
Background: Resazurin is reduced to fluorescent resorufin, in cell work by metabolically active cells.

Another experiment addresses T2, G1 APOL1 (Homo sapiens, UniProt O14791, I384M/S342G).
T2 construct: expressed in transfected cells
T2 sequence (O14791 28-398 S342G/I384M): T1 sequence (O14791 28-398 S342G/I384M)
In words: Acute APOL1 Thallium Assay with Inducible Stable Clones of HEK 293 Cells. Format: cell-based. The note with it: HEK 293 inducible stable clones, G1 APOL1; read-out: Thallium Assay (IC50). The method in brief: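 HEK293 T-Rex cells with a stable tetracycline-inducible G1 APOL1 construct (clone DC3.25) were induced with tetracycline at plating, 26000 cells per well, then incubated at 37° C. They were loaded with an AM-ester thallium-sensitive dye and stimulated with Tl+. The fluorescence rise measured Tl+ influx through APOL1 pores.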

Structures can show the parent of a compound that is named as a salt.

In the case of `O=C(CCc1c(-c2ccc(F)cc2)[nH]c2c(F)cc(F)cc12)Nc1ccon1` [Compound 160], the IC50 on APOL1 G1 Protein and on G1 APOL1 was more than 1 µM throughout.

In the case of `O=C(CCc1c(-c2ccc(F)cc2)[nH]c2c(F)cc(F)cc12)NCc1cn(CC(F)(F)F)cn1` [Compound 168], the IC50 on APOL1 G1 Protein and on G1 APOL1 was more than 1 µM each time.

On to `NCCCc1c(-c2ccc(F)cc2)[nH]c2c(F)cc(F)cc12` [Compound 504, 3-[5,7-difluoro-2-(4-fluorophenyl)-1H-indol-3-yl]propan-1-amine], for which the half-inhibitory concentration (IC50) at APOL1 G1 Protein is less than 0.25 µM; on G1 APOL1, 0.25 to 1 µM.

Consider `CCNC(=O)C(C)NC(=O)CCc1c(-c2ccc(F)cc2)[nH]c2ccc(F)cc12` (racemic) [Compound 12], for which the IC50 at APOL1 G1 Protein and at G1 APOL1 was 0.25 to 1 µM in each case.

Take `O=C(CCc1c(-c2ccc(F)cc2)[nH]c2c(F)cc(F)cc12)NCc1ncc[nH]1` [Compound 134]: the IC50 on APOL1 G1 Protein and on G1 APOL1 was more than 1 µM each time.

As to `CNC(=O)C(C)NC(=O)CCc1c(-c2ccc(F)cc2)[nH]c2c(F)cc(F)cc12` (racemic) [Compound 100], the IC50 at APOL1 G1 Protein and on G1 APOL1 was 0.25 to 1 µM each time.

For `O=C(CCc1c(-c2ccc(F)cc2)[nH]c2c(F)cc(F)cc12)NC(CO)(CO)CO` [Compound 95], the IC50 on APOL1 G1 Protein and at G1 APOL1 was 0.25 to 1 µM throughout.

Turning to `NC1CCCN(C(=O)CCc2c(-c3ccc(F)cc3)[nH]c3ccc(F)cc23)C1` (stereo not drawn) [Compound 56], the IC50 on APOL1 G1 Protein and on G1 APOL1 was more than 1 µM throughout.

`O=C(CCc1c(-c2ccc(F)cc2)[nH]c2ccc(F)cc12)NC1CONC1=O` (stereo not drawn) [Compound 63]: the IC50 on APOL1 G1 Protein and at G1 APOL1 was more than 1 µM throughout.

Consider `COCCN(C)C(=O)CCc1c(-c2ccc(F)cc2)[nH]c2c(F)cc(F)cc12` [Compound 156], for which the IC50 on APOL1 G1 Protein and on G1 APOL1 was more than 1 µM throughout.

Turning to `CC(C)(NC(=O)CCc1c(-c2ccc(F)cc2)[nH]c2ccc(F)cc12)C(N)=O` [Compound 17], the IC50 at APOL1 G1 Protein and on G1 APOL1 was 0.25 to 1 µM throughout.

As to `O=C(/C=C/c1c(-c2ccc(F)cc2)[nH]c2c(F)cc(F)cc12)N[C@@H]1C(=O)NC[C@H]1O` [Compound 518, (E)-3-[5,7-difluoro-2-(4-fluorophenyl)-1H-indol-3-yl]-N-[(3S,4R)-4-hydroxy-2-oxo-pyrrolidin-3-yl]prop-2-enamide], the IC50 at APOL1 G1 Protein and at G1 APOL1 was less than 0.25 µM in each case.

Regarding `CC(O)C(C)NC(=O)CCc1c(-c2ccc(F)cc2)[nH]c2ccc(F)cc12` (mixture of isomers) [Compound 35], the IC50 on APOL1 G1 Protein and at G1 APOL1 was more than 1 µM in each case.

In the case of `N#CC(CO)NC(=O)CCc1c(-c2ccc(F)cc2)[nH]c2c(F)cc(F)cc12` (stereo not drawn) [Compound 106], the results for the IC50 at APOL1 G1 Protein and on G1 APOL1 were 0.25 to 1 µM and less than 0.25 µM, respectively.

`O=C(CCc1c(-c2ccc(F)cc2)[nH]c2ccc(F)cc12)NCC1(O)CCC1` [Compound 64]: the 50% inhibitory concentration (IC50) at APOL1 G1 Protein and on G1 APOL1 was more than 1 µM throughout.

As for `O=C(CCc1c(-c2ccc(F)cc2)[nH]c2c(F)cc(F)cc12)N[C@H]1CC[C@H](O)C1` [Compound 135], the IC50 at APOL1 G1 Protein and at G1 APOL1 was more than 1 µM each time.

For `Cn1nccc1NC(=O)CCc1c(-c2ccc(F)cc2)[nH]c2c(F)cc(F)cc12` [Compound 144], the 50% inhibitory concentration (IC50) at APOL1 G1 Protein and on G1 APOL1 was more than 1 µM each time.

`C[C@H](NC(=O)CCc1c(-c2ccc(F)cc2)[nH]c2ccc(F)cc12)C(N)=O` [Compound 61]: the IC50 on APOL1 G1 Protein and at G1 APOL1 was more than 1 µM each time.

As for `O=C(CCc1c(-c2ccc(F)cc2)[nH]c2ccc(F)cc12)NC1(CO)COC1` [Compound 32], the IC50 on APOL1 G1 Protein and at G1 APOL1 was 0.25 to 1 µM each time.

Turning to `COCCNC(=O)CCc1c(-c2ccc(F)cc2)[nH]c2c(F)cc(F)cc12` [Compound 164], the IC50 at APOL1 G1 Protein and on G1 APOL1 was more than 1 µM each time.

Turning to `CC(C)(C)OC(=O)NC1CN(C(=O)CCc2c(-c3ccc(F)cc3)[nH]c3ccc(F)cc23)C1` [Compound 52], the IC50 on APOL1 G1 Protein and at G1 APOL1 was more than 1 µM in each case.

Take `O=C(CCc1c(-c2ccc(F)cc2)[nH]c2ccc(F)cc12)N[C@H]1CNC[C@@H]1O` [Compound 2, 3-[5-fluoro-2-(4-fluorophenyl)-1H-indol-3-yl]-N-[(3S,4S)-4-hydroxypyrrolidin-3-yl]propanamide hydrochloride]: the IC50 on APOL1 G1 Protein and at G1 APOL1 was more than 1 µM throughout.

Regarding `O=C(CCc1c(-c2ccc(F)cc2)[nH]c2c(F)cc(F)cc12)NC1CCCNC1=O` (stereo not drawn) [Compound 113], the IC50 at APOL1 G1 Protein is 0.25 to 1 µM; at G1 APOL1, more than 1 µM.

As for `O=C(CCc1c(-c2ccc(F)cc2)[nH]c2c(F)cc(F)cc12)NC[C@@H](O)C(F)(F)F` [Compound 137], the IC50 at APOL1 G1 Protein and at G1 APOL1 was more than 1 µM in each case.

As for `O=C(CCc1c(-c2ccc(F)cc2)[nH]c2c(F)cc(F)cc12)N1CCCC1CCO` (stereo not drawn) [Compound 136], the IC50 at APOL1 G1 Protein and at G1 APOL1 was more than 1 µM in each case.

With `NC(=O)CCc1c(-c2ccc(F)cc2)[nH]c2ccc(F)cc12` [Compound 68], the IC50 on APOL1 G1 Protein and at G1 APOL1 was more than 1 µM each time.

For `C[C@H](CO)NC(=O)CCc1c(-c2ccc(F)cc2)[nH]c2ccc(F)cc12` [Compound 8], the IC50 at APOL1 G1 Protein and at G1 APOL1 was less than 0.25 µM throughout.

For the compound `CC(C)(CO)NC(=O)CCc1c(-c2ccc(F)cc2)[nH]c2c(F)cc(F)cc12` [Compound 103], the IC50 at APOL1 G1 Protein and at G1 APOL1 was 0.25 to 1 µM throughout.

Take `O=C(CCc1c(-c2ccc(F)cc2)[nH]c2ccc(F)cc12)NC1(CO)CC1` [Compound 40]: the concentration for half-maximal inhibition (IC50) at APOL1 G1 Protein and at G1 APOL1 was 0.25 to 1 µM each time.

As to `O=C(CCc1c(-c2ccccc2)[nH]c2ccc(F)cc12)NCCO` [Compound 236], the half-inhibitory concentration (IC50) on APOL1 G1 Protein and at G1 APOL1 was more than 1 µM in each case.

For the compound `O=C(CCc1c(-c2ccc(F)cc2)[nH]c2c(F)cc(F)cc12)NCc1cocn1` [Compound 155], the IC50 on APOL1 G1 Protein and on G1 APOL1 was more than 1 µM throughout.

Regarding `O=C(CCc1c(-c2ccc(F)cc2)[nH]c2ccc(F)cc12)NC1CCCNC1=O` (stereo not drawn) [Compound 26], the IC50 on APOL1 G1 Protein and at G1 APOL1 was more than 1 µM in each case.

Take `O=C(CCO)NCCc1c(-c2ccc(F)cc2)[nH]c2c(F)cc(F)cc12` [Compound 361]: the IC50 at APOL1 G1 Protein and at G1 APOL1 was 0.25 to 1 µM each time.

As to `O=C(CCc1c(-c2ccc(F)cc2)[nH]c2c(F)cc(F)cc12)NC1(CCO)CC1` [Compound 154], the IC50 on APOL1 G1 Protein and on G1 APOL1 was more than 1 µM each time.

With `CS(=O)(=O)NC(=O)CCc1c(-c2ccc(F)cc2)[nH]c2c(F)cc(F)cc12` [Compound 93, 3-[5,7-difluoro-2-(4-fluorophenyl)-1H-indol-3-yl]-N-methylsulfonyl-propanamide], the IC50 at APOL1 G1 Protein and at G1 APOL1 was more than 1 µM throughout.

With `Cc1nc(NC(=O)CCc2c(-c3ccc(F)cc3)[nH]c3c(F)cc(F)cc23)no1` [Compound 92, 3-[5,7-difluoro-2-(4-fluorophenyl)-1H-indol-3-yl]-N-(5-methyl-1,2,4-oxadiazol-3-yl)propanamide], the IC50 on APOL1 G1 Protein and at G1 APOL1 was more than 1 µM in each case.

Broadly, the IC50 is the concentration that gives 50% inhibition.
